Results: ChEMBL document CHEMBL3046609, “Herbicidal properties of the thaxtomin group of phytotoxins” (2001)
The source made the active and inactive calls. The rule behind the calls is not given here.

Columns and labels:
[1] = system: Helianthus annuus; experiment: Herbicidal activity against Helianthus annuus (sunflower) assessed as visual injury at 10 ug/seedling applied to meristem after 1 week relative to control; assay type: functional
[2] = system: Echinochloa crus-galli; experiment: Post-emergence herbicidal activity against Echinochloa crus-galli (barnyard grass) after 9 days; assay type: functional
[3] = system: Helianthus annuus; experiment: Post-emergence growth inhibition of Helianthus annuus (sunflower) after 9 days; assay type: functional
[4] = system: Avena fatua; experiment: Pre-emergence growth inhibition of Avena fatua assessed as visual injury at 0.5 kg/ha after 16 days relative to control; assay type: functional; design: scale not given: the % may be the effect or the level left
[5] = system: Ipomoea hederacea; experiment: Herbicidal activity against Ipomoea hederacea (ivy-leaved morning glory) assessed as visual injury at 100 ug/seedling applied to cotyledon after 1 week relative to control; assay type: functional
[6] = system: Ipomoea hederacea; experiment: Herbicidal activity against Ipomoea hederacea (ivy-leaved morning glory) assessed as visual injury at 100 ug/seedling applied to meristem after 1 week relative to control; assay type: functional
[7] = system: Helianthus annuus; experiment: Herbicidal activity against Helianthus annuus (sunflower) assessed as visual injury at 100 ug/seedling applied to cotyledon after 1 week relative to control; assay type: functional
[8] = system: Abutilon theophrasti; experiment: Herbicidal activity against Abutilon theophrasti (velvetleaf) assessed as visual injury at 1 ug/seedling applied to leaf after 1 week relative to control; assay type: functional
[9] = system: Abutilon theophrasti; experiment: Herbicidal activity against Abutilon theophrasti (velvetleaf) assessed as visual injury at 10 ug/seedling applied to leaf after 1 week relative to control; assay type: functional
[10] = system: Abutilon theophrasti; experiment: Herbicidal activity against Abutilon theophrasti (velvetleaf) assessed as visual injury at 100 ug/seedling applied to leaf after 1 week relative to control; assay type: functional
[11] = system: Abutilon theophrasti; experiment: Herbicidal activity against Abutilon theophrasti (velvetleaf) assessed as visual injury at 1 ug/seedling applied to meristem after 1 week relative to control; assay type: functional
[12] = system: Abutilon theophrasti; experiment: Herbicidal activity against Abutilon theophrasti (velvetleaf) assessed as visual injury at 10 ug/seedling applied to meristem after 1 week relative to control; assay type: functional
[13] = system: Helianthus annuus; experiment: Pre-emergence growth inhibition of Helianthus annuus (sunflower) assessed as meristematic at 0.5 to 4 kg/ha after 16 days; assay type: functional, organism-based
[14] = system: Ipomoea hederacea; experiment: Pre-emergence herbicidal activity against Ipomoea hederacea (ivy-leaved morning glory) assessed as stunting at 0.5 to 4 kg/ha after 16 days; assay type: functional, organism-based
[15] = system: Echinochloa crus-galli; experiment: Pre-emergence herbicidal activity against Echinochloa crus-galli (barnyard grass) assessed as stunting at 0.5 to 4 kg/ha after 16 days; assay type: functional, organism-based
[16] = system: Helianthus annuus; experiment: Pre-emergence growth inhibition of Helianthus annuus (sunflower) assessed as stunting at 0.5 to 4 kg/ha after 16 days; assay type: functional, organism-based
[17] = system: Echinochloa crus-galli; experiment: Post-emergence herbicidal activity against Echinochloa crus-galli (barnyard grass) assessed as wilting at 0.5 to 4 kg/ha after 9 days; assay type: functional, organism-based
[18] = system: Avena fatua; experiment: Post-emergence growth inhibition of Avena fatua assessed as wilting at 0.5 to 4 kg/ha after 9 days; assay type: functional, organism-based
[19] = system: Avena fatua; experiment: Post-emergence growth inhibition of Avena fatua assessed as meristematic at 0.5 to 4 kg/ha after 9 days; assay type: functional, organism-based
[20] = system: Helianthus annuus; experiment: Post-emergence growth inhibition of Helianthus annuus (sunflower) assessed as wilting at 0.5 to 4 kg/ha after 9 days; assay type: functional, organism-based
[21] = system: Echinochloa crus-galli; experiment: Post-emergence herbicidal activity against Echinochloa crus-galli (barnyard grass) assessed as meristematic at 0.5 to 4 kg/ha after 9 days; assay type: functional, organism-based
[22] = system: Helianthus annuus; experiment: Post-emergence growth inhibition of Helianthus annuus (sunflower) assessed as meristematic at 0.5 to 4 kg/ha after 9 days; assay type: functional, organism-based
[23] = system: Echinochloa crus-galli; experiment: Post-emergence herbicidal activity against Echinochloa crus-galli (barnyard grass) assessed as stunting at 0.5 to 4 kg/ha after 9 days; assay type: functional, organism-based
[24] = system: Agrostis stolonifera var. palustris; experiment: Herbicidal activity against Agrostis stolonifera var. palustris after 9 days by agarose-based test; assay type: functional
[25] = system: Arabidopsis thaliana; experiment: Growth inhibition of Arabidopsis thaliana var. Columbia after 9 days by agarose-based test; assay type: functional
[26] = system: Lemna minor; experiment: Herbicidal activity against Lemna minor (common duckweed) after 9 days; assay type: functional
[27] = system: Lemna minor; experiment: Herbicidal activity against Lemna minor (common duckweed) assessed as visual injury at 0.008 ppm after 9 days relative to control; assay type: functional
[28] = system: Lemna minor; experiment: Herbicidal activity against Lemna minor (common duckweed) assessed as visual injury at 0.04 ppm after 9 days relative to control; assay type: functional
[29] = system: Lemna minor; experiment: Herbicidal activity against Lemna minor (common duckweed) assessed as visual injury at 0.2 ppm after 9 days relative to control; assay type: functional
[30] = system: Lemna minor; experiment: Herbicidal activity against Lemna minor (common duckweed) assessed as visual injury at 25 ppm after 9 days relative to control; assay type: functional
[31] = system: Lemna minor; experiment: Herbicidal activity against Lemna minor (common duckweed) assessed as visual injury at 5 ppm after 9 days relative to control; assay type: functional
[32] = system: Agrostis stolonifera var. palustris; experiment: Herbicidal activity against Agrostis stolonifera var. palustris assessed as visual injury at 1 ppm after 9 days relative to control; assay type: functional
[33] = system: Agrostis stolonifera var. palustris; experiment: Herbicidal activity against Agrostis stolonifera var. palustris assessed as visual injury at 25 ppm after 9 days relative to control; assay type: functional
[34] = system: Agrostis stolonifera var. palustris; experiment: Herbicidal activity against Agrostis stolonifera var. palustris assessed as visual injury at 0.04 ppm after 9 days relative to control; assay type: functional
[35] = system: Ipomoea hederacea; experiment: Pre-emergence herbicidal activity against Ipomoea hederacea (ivy-leaved morning glory) assessed as visual injury at 2 kg/ha after 16 days relative to control; assay type: functional
[36] = system: Helianthus annuus; experiment: Pre-emergence growth inhibition of Helianthus annuus (sunflower) assessed as visual injury at 0.5 kg/ha after 16 days relative to control; assay type: functional; design: scale not given: the % may be the effect or the level left
[37] = system: Helianthus annuus; experiment: Pre-emergence growth inhibition of Helianthus annuus (sunflower) assessed as visual injury at 2 kg/ha after 16 days relative to control; assay type: functional; design: scale not given: the % may be the effect or the level left
[38] = system: Helianthus annuus; experiment: Pre-emergence growth inhibition of Helianthus annuus (sunflower) assessed as visual injury at 4 kg/ha after 16 days relative to control; assay type: functional; design: scale not given: the % may be the effect or the level left
[39] = system: Avena fatua; experiment: Post-emergence growth inhibition of Avena fatua assessed as visual injury at 0.5 kg/ha after 9 days relative to control; assay type: functional; design: scale not given: the % may be the effect or the level left
[40] = system: Avena fatua; experiment: Post-emergence growth inhibition of Avena fatua assessed as visual injury at 1 kg/ha after 9 days relative to control; assay type: functional; design: scale not given: the % may be the effect or the level left
[41] = system: Avena fatua; experiment: Post-emergence growth inhibition of Avena fatua assessed as visual injury at 2 kg/ha after 9 days relative to control; assay type: functional; design: scale not given: the % may be the effect or the level left
[42] = system: Avena fatua; experiment: Post-emergence growth inhibition of Avena fatua assessed as visual injury at 4 kg/ha after 9 days relative to control; assay type: functional; design: scale not given: the % may be the effect or the level left
[43] = system: Echinochloa crus-galli; experiment: Post-emergence herbicidal activity against Echinochloa crus-galli (barnyard grass) assessed as visual injury at 0.5 kg/ha after 9 days relative to control; assay type: functional
[44] = system: Echinochloa crus-galli; experiment: Post-emergence herbicidal activity against Echinochloa crus-galli (barnyard grass) assessed as visual injury at 2 kg/ha after 9 days relative to control; assay type: functional
[45] = system: Ipomoea hederacea; experiment: Post-emergence herbicidal activity against Ipomoea hederacea (ivy-leaved morning glory) assessed as visual injury at 1 kg/ha after 9 days relative to control; assay type: functional
[46] = system: Ipomoea hederacea; experiment: Post-emergence herbicidal activity against Ipomoea hederacea (ivy-leaved morning glory) assessed as visual injury at 4 kg/ha after 9 days relative to control; assay type: functional
[47] = system: Helianthus annuus; experiment: Post-emergence growth inhibition of Helianthus annuus (sunflower) assessed as visual injury at 0.5 kg/ha after 9 days relative to control; assay type: functional; design: scale not given: the % may be the effect or the level left
[48] = system: Helianthus annuus; experiment: Post-emergence growth inhibition of Helianthus annuus (sunflower) assessed as visual injury at 2 kg/ha after 9 days relative to control; assay type: functional; design: scale not given: the % may be the effect or the level left
[49] = system: Helianthus annuus; experiment: Post-emergence growth inhibition of Helianthus annuus (sunflower) assessed as visual injury at 4 kg/ha after 9 days relative to control; assay type: functional; design: scale not given: the % may be the effect or the level left

Structure (SMILES): CN1C(=O)[C@](O)(Cc2cccc(O)c2)N(C)C(=O)[C@@H]1Cc1c[nH]c2cccc([N+](=O)[O-])c12 [THAXTOMIN A]
- Activity [1]: 90%
- GR50 [2]: 2 kg/ha
- GR50 [3]: <500 g/ha
- Activity [4]: 100%
- Activity [5]: 0%
- Activity [6]: 80%
- Activity [7]: 0%
- Activity [8]: 0%
- Activity [9]: 0%
- Activity [10]: 0%
- Activity [11]: 20%
- Activity [12]: 75%
- Activity [13]: Active
- Activity [14]: Active
- Activity [15]: Active
- Activity [16]: Active
- Activity [17]: Active
- Activity [18]: Active
- Activity [19]: Active
- Activity [20]: Active
- Activity [21]: Active
- Activity [22]: Active
- Activity [23]: Active
- I50 [24]: 25 ppb
- I50 [25]: 10 ppb
- GR50 [26]: 5 ppb
- Activity [27]: 30%
- Activity [28]: 70%
- Activity [29]: 95%
- Activity [30]: 100%
- Activity [31]: 100%
- Activity [32]: 100%
- Activity [33]: 100%
- Activity [34]: 80%
- Activity [35]: 100%
- Activity [36]: 70%
- Activity [37]: 100%
- Activity [38]: 100%
- Activity [39]: 0%
- Activity [40]: 30%
- Activity [41]: 20%
- Activity [42]: 80%
- Activity [43]: 10%
- Activity [44]: 40%
- Activity [45]: 80%
- Activity [46]: 85%
- Activity [47]: 75%
- Activity [48]: 85%
- Activity [49]: 85%
